Reference: ChEMBL document CHEMBL4507276 (2021)

Experiments:
[1] = test system: Tyrosine-protein kinase ABL1 (Homo sapiens), P00519 [M351T]; conditions: Compound concentration 1000.0 nM
[2] = biological target: Tyrosine-protein kinase Blk (Homo sapiens) (UniProt P51451); conditions: Compound concentration 1000.0 nM
[3] = biological target: Calcium/calmodulin-dependent protein kinase kinase 1 (Homo sapiens) (UniProt Q8N5S9); conditions: Compound concentration 1000.0 nM
[4] = biological target: Cyclin-dependent kinase 2 (Homo sapiens) (UniProt P24941); conditions: Compound concentration 1000.0 nM
[5] = biological target: Cyclin-dependent kinase 4 (Homo sapiens) (UniProt P11802); conditions: Compound concentration 1000.0 nM
[6] = biological target: Dual specificity protein kinase CLK3 (Homo sapiens) (UniProt P49761); conditions: Compound concentration 1000.0 nM
[7] = biological target: Casein kinase I isoform gamma-2 (Homo sapiens) (UniProt P78368); conditions: Compound concentration 1000.0 nM
[8] = biological target: Mitogen-activated protein kinase kinase kinase 12 (Homo sapiens) (UniProt Q12852); conditions: Compound concentration 1000.0 nM
[9] = test system: Epidermal growth factor receptor (Homo sapiens), P00533 [T790M]; conditions: Compound concentration 1000.0 nM
[10] = biological target: Vascular endothelial growth factor receptor 3 (Homo sapiens) (UniProt P35916); conditions: Compound concentration 1000.0 nM
[11] = biological target: Mast/stem cell growth factor receptor Kit (Homo sapiens) (UniProt P10721); conditions: Compound concentration 1000.0 nM
[12] = biological target: T1, Muscle, skeletal receptor tyrosine-protein kinase (Homo sapiens) (UniProt O15146); conditions: Compound concentration 1000.0 nM
T1 sequence (whole entry): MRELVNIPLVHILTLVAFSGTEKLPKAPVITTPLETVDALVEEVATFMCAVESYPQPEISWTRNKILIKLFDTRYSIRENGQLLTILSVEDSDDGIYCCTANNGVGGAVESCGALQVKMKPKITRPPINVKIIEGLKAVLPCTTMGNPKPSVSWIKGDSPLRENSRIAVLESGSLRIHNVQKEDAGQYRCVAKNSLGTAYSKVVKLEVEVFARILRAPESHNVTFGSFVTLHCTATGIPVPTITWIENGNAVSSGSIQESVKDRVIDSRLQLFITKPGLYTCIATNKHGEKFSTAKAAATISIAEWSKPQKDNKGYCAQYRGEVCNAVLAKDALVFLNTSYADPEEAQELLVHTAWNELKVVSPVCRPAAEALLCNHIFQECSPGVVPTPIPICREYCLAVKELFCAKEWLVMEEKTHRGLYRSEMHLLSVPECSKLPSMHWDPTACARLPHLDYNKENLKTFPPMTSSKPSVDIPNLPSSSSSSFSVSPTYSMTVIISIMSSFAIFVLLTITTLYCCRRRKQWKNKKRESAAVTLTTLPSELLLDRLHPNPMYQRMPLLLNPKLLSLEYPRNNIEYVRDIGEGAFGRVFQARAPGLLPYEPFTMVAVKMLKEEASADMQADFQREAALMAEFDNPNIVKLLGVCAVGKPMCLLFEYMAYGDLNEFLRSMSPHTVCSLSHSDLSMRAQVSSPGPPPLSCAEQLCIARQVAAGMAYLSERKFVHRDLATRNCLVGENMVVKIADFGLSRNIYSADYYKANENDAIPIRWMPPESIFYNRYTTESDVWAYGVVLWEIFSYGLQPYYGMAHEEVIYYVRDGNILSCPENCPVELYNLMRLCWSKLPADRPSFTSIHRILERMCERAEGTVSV

[13] = biological target: T2, Serine/threonine-protein kinase TAO2 (Homo sapiens) (UniProt Q9UL54); conditions: Compound concentration 1000.0 nM
T2 sequence (whole entry): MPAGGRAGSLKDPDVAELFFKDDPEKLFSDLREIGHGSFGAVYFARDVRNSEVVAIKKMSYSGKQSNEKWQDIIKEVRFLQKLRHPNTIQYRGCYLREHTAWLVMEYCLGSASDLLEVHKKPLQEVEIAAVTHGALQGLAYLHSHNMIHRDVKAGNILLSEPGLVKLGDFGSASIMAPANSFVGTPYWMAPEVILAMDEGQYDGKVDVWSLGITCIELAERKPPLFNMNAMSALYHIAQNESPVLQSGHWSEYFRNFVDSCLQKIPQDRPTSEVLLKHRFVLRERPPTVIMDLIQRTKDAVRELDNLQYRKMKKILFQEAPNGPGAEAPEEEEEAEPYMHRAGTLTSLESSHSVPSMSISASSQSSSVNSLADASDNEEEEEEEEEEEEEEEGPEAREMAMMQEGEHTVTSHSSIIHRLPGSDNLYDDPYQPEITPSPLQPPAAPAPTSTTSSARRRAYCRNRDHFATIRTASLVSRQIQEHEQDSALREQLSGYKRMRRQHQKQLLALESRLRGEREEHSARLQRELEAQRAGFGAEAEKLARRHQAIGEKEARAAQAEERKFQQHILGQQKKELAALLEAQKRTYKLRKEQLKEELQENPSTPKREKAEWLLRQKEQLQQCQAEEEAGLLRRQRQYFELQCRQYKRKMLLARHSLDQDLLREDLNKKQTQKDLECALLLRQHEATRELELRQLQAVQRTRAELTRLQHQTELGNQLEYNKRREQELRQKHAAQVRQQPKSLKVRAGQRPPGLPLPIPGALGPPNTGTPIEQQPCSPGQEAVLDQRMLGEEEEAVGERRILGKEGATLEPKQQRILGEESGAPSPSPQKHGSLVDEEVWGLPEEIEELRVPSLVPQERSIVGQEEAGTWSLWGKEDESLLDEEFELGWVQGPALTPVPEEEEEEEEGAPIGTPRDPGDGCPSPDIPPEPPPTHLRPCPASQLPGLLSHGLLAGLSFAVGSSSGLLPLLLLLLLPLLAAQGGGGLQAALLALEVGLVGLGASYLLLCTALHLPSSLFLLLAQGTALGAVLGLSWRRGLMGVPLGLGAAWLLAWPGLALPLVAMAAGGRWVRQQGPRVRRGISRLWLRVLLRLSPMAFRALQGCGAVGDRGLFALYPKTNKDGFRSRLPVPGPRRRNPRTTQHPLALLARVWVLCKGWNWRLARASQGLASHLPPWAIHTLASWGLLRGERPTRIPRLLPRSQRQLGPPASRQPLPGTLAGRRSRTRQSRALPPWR

[14] = biological target: Dual specificity testis-specific protein kinase 1 (Homo sapiens) (UniProt Q15569); conditions: Compound concentration 1000.0 nM
[15] = biological target: Serine/threonine-protein kinase ULK1 (Homo sapiens) (UniProt O75385); conditions: Compound concentration 1000.0 nM
[16] = biological target: Phosphatidylinositol 3-kinase catalytic subunit type 3 (Homo sapiens) (UniProt Q8NEB9); conditions: Compound concentration 1000.0 nM
[17] = biological target: Mu-type opioid receptor (Homo sapiens) (UniProt P35372); conditions: Compound concentration 10.0 uM

Chain of Dual specificity testis-specific protein kinase 1 (Homo sapiens) (Q15569 whole entry, looked up): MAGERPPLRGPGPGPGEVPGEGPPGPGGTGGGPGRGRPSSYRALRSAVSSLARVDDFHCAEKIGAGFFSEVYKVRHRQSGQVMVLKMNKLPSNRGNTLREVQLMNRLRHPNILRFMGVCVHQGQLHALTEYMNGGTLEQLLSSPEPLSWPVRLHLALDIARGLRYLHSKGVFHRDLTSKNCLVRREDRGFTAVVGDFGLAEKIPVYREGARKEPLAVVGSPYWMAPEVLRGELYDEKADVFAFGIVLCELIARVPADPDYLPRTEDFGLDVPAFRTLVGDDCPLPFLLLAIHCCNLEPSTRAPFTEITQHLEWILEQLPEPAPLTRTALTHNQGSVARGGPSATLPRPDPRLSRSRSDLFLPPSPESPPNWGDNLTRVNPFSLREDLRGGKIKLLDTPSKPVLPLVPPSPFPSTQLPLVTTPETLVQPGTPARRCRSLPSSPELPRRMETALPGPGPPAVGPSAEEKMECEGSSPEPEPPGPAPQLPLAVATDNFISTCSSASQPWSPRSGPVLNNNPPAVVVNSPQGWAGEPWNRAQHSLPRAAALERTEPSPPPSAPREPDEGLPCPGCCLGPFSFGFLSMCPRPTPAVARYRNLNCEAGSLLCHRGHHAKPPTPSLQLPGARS
Chain of Dual specificity protein kinase CLK3 (Homo sapiens) (P49761 whole entry, looked up, canonical isoform): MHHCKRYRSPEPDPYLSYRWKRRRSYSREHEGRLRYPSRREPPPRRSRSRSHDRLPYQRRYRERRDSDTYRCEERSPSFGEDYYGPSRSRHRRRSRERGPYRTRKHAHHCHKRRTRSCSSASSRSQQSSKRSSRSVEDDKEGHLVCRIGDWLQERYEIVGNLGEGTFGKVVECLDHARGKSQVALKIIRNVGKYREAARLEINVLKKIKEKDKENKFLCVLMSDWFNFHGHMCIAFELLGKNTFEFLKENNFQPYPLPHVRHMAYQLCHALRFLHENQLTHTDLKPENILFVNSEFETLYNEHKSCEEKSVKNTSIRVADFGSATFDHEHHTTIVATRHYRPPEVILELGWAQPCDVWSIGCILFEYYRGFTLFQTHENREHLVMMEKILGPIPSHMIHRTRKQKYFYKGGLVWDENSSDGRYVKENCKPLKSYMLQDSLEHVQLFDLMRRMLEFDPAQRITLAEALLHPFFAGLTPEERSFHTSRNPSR
Chain of Serine/threonine-protein kinase ULK1 (Homo sapiens) (O75385 whole entry): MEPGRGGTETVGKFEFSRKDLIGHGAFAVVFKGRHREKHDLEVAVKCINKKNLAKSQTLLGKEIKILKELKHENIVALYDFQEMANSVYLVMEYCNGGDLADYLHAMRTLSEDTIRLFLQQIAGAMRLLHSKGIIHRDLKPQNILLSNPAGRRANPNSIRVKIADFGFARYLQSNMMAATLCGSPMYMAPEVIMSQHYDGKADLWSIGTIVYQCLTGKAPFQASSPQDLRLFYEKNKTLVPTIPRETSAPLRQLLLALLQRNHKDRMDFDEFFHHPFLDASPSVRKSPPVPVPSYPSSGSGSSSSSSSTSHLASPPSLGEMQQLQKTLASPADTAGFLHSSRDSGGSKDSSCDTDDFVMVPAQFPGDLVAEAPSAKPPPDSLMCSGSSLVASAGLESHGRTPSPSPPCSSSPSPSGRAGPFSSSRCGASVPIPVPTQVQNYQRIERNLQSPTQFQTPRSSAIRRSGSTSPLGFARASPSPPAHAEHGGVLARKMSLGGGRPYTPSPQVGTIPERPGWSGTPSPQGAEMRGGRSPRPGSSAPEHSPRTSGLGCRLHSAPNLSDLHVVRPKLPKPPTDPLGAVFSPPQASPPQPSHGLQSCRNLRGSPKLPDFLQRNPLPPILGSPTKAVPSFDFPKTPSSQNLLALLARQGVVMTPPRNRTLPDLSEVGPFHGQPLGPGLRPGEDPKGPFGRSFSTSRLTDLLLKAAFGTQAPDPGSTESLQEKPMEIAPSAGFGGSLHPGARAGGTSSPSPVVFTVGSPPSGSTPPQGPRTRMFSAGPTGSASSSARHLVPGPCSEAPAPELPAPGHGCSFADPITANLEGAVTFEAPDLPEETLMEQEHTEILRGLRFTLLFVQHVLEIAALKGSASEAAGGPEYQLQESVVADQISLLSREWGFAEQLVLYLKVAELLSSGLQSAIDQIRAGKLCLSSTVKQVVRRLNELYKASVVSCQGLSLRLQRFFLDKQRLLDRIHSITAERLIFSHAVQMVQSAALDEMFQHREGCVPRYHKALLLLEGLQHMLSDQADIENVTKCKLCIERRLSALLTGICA
Chain of Phosphatidylinositol 3-kinase catalytic subunit type 3 (Homo sapiens) (Q8NEB9 whole entry): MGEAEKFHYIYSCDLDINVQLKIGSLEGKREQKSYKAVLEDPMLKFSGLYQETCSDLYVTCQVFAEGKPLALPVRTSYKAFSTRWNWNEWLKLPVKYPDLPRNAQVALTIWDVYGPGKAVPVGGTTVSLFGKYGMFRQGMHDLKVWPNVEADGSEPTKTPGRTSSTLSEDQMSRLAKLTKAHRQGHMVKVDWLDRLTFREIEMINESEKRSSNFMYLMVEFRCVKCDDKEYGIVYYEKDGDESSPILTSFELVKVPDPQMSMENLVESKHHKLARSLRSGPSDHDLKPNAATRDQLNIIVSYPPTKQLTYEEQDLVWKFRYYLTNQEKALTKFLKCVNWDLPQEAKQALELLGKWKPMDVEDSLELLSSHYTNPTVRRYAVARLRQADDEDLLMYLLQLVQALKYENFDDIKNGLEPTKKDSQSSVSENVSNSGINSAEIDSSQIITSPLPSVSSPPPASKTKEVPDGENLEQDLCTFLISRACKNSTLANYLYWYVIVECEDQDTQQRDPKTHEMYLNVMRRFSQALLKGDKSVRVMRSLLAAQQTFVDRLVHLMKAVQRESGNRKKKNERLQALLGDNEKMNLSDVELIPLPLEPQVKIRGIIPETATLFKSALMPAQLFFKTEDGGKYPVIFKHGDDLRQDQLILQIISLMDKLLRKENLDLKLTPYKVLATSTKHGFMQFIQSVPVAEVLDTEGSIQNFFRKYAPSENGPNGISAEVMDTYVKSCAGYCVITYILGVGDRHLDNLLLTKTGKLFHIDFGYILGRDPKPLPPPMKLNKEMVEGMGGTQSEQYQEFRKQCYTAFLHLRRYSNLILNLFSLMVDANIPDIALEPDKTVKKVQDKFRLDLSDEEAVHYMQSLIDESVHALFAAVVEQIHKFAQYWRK
Chain of Vascular endothelial growth factor receptor 3 (Homo sapiens) (P35916 whole entry): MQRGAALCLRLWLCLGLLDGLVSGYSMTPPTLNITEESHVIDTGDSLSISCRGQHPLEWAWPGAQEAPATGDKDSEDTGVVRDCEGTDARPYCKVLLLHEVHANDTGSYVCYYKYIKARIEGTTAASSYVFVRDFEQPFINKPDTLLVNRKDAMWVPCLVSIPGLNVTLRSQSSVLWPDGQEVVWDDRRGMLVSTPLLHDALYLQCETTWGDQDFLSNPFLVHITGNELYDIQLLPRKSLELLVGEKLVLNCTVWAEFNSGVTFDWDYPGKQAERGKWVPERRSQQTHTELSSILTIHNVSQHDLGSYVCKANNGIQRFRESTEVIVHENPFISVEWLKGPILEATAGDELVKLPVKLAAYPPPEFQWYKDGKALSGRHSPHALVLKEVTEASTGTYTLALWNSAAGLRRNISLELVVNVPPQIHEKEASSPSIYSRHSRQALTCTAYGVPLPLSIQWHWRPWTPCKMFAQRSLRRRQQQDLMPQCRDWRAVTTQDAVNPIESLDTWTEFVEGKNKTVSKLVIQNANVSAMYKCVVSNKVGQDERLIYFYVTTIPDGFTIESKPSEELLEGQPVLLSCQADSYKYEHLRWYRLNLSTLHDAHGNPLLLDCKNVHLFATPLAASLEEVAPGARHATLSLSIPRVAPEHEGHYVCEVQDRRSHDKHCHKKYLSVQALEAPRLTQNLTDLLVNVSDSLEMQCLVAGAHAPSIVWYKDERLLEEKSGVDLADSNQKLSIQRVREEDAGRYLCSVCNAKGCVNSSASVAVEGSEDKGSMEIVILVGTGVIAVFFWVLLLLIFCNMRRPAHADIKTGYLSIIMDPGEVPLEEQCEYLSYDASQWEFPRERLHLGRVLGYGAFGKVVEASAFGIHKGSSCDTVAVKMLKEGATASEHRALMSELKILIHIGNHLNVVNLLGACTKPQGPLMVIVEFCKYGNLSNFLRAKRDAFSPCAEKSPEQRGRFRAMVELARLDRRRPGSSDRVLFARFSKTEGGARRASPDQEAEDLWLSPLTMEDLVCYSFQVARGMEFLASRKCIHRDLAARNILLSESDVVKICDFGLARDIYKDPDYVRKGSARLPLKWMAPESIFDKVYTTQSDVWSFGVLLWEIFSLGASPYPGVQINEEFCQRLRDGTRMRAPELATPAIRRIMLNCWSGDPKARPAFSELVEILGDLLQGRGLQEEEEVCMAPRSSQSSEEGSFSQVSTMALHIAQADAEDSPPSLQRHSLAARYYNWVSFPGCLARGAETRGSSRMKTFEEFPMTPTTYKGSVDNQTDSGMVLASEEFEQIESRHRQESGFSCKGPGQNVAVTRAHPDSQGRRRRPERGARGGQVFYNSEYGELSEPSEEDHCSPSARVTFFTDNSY
Chain of Tyrosine-protein kinase Blk (Homo sapiens) (P51451 2-505 limits assumed): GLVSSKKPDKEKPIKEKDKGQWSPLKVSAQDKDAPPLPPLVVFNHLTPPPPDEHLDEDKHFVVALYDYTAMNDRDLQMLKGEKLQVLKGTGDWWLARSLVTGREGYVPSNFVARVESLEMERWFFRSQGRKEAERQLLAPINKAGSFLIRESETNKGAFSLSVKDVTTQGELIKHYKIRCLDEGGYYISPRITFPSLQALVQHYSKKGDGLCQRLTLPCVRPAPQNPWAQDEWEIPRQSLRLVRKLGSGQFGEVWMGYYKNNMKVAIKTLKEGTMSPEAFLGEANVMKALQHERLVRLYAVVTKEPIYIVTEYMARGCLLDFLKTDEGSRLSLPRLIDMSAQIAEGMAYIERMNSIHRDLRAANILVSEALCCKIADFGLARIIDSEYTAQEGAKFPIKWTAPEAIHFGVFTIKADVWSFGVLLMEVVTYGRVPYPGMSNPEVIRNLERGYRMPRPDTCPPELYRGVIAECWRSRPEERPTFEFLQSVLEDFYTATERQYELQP

CN(C)C(=O)Cn1cc(-c2nc(C3(c4ccc(-c5cnc(N)nc5)cc4)CC3)no2)cn1 [BI 0153]
inactive: residual activity [1] 100% | residual activity [2] 83% | residual activity [3] 100% | residual activity [4] 100% | residual activity [5] 100% | residual activity [6] 100% | residual activity [7] 82% | residual activity [8] 100% | residual activity [9] 80% | residual activity [10] 95% | residual activity [11] 93% | residual activity [12] 100% | residual activity [13] 100% | residual activity [14] 94% | residual activity [15] 75% | residual activity [16] 96% | inhibition [17] 12.6%

CN(C)C(=O)Cn1cc(-c2nc([C@@](C)(c3ccc(-c4cnc(N)nc4)cc3)C3CC3)no2)cn1 [BI 665915]
inactive: residual activity [1] 80% | residual activity [2] 98% | residual activity [3] 100% | residual activity [4] 96% | residual activity [5] 94% | residual activity [6] 100% | residual activity [7] 100% | residual activity [8] 80% | residual activity [9] 100% | residual activity [10] 88% | residual activity [11] 87% | residual activity [12] 100% | residual activity [13] 81% | residual activity [14] 90% | residual activity [15] 77% | residual activity [16] 89% | inhibition [17] 4.55%
